# Assay: xn = mol fraction of the nth substance listed
# Details: 100 kPa
smiles,measurement,setting,value
CCCC[n+]1ccn(C)c1.F[B-](F)(F)F + CCOC(C)=O,speed of sound,"298.15 K, x1 = 0.1012",1186 m/s
same,speed of sound,"298.15 K, x1 = 0.1992",1228.1 m/s
same,speed of sound,"298.15 K, x1 = 0.3985",1307 m/s
same,speed of sound,"298.15 K, x1 = 0.5056",1351.4 m/s
same,speed of sound,"298.15 K, x1 = 0.7054",1437.5 m/s
same,speed of sound,"303.15 K, x1 = 0.1012",1164.6 m/s
same,speed of sound,"303.15 K, x1 = 0.1992",1207.8 m/s
same,speed of sound,"303.15 K, x1 = 0.5056",1334.1 m/s
same,speed of sound,"303.15 K, x1 = 0.7054",1422.3 m/s
same,speed of sound,"303.15 K, x1 = 0.9185",1509.6 m/s
same,speed of sound,"308.15 K, x1 = 0.312",1232 m/s
same,speed of sound,"308.15 K, x1 = 0.3985",1270.6 m/s
same,speed of sound,"308.15 K, x1 = 0.5056",1317.1 m/s
same,speed of sound,"308.15 K, x1 = 0.5996",1360.3 m/s
same,speed of sound,"308.15 K, x1 = 0.7054",1407.5 m/s
same,speed of sound,"308.15 K, x1 = 0.9185",1496.9 m/s
same,speed of sound,"313.15 K, x1 = 0.1992",1167.6 m/s
same,speed of sound,"313.15 K, x1 = 0.3985",1252.4 m/s
same,speed of sound,"313.15 K, x1 = 0.7054",1392.6 m/s
same,speed of sound,"313.15 K, x1 = 0.7963",1438.8 m/s
same,speed of sound,"313.15 K, x1 = 0.9185",1484.1 m/s
same,speed of sound,"318.15 K, x1 = 0.1992",1147.5 m/s
same,speed of sound,"318.15 K, x1 = 0.312",1193.9 m/s
same,speed of sound,"318.15 K, x1 = 0.3985",1234.4 m/s
same,speed of sound,"318.15 K, x1 = 0.5056",1283.1 m/s
same,speed of sound,"318.15 K, x1 = 0.5996",1328.3 m/s
same,speed of sound,"318.15 K, x1 = 0.7054",1377.8 m/s
same,speed of sound,"318.15 K, x1 = 0.7963",1425.1 m/s
same,speed of sound,"323.15 K, x1 = 0.1012",1080.1 m/s
same,speed of sound,"323.15 K, x1 = 0.1992",1127.5 m/s
same,speed of sound,"323.15 K, x1 = 0.312",1175 m/s
same,speed of sound,"323.15 K, x1 = 0.3985",1216.4 m/s
same,speed of sound,"323.15 K, x1 = 0.5996",1312.6 m/s
same,speed of sound,"323.15 K, x1 = 0.7054",1363.2 m/s
same,speed of sound,"323.15 K, x1 = 0.7963",1411.6 m/s
same,speed of sound,"323.15 K, x1 = 0.9185",1459.1 m/s

# Source: a compilation of properties of binary mixtures (doi:10.1016/j.molliq.2021.117187)
